Tests used:
[1] = tested on: RAW264.7; assay: Inhibition of LPS-induced nitric oxide production in mouse RAW264.7 cells at 10 uM measured after 24 hrs by Griess reagent based assay relative to control; format: functional
[2] = tested on: RAW264.7; assay: Inhibition of LPS-induced nitric oxide production in mouse RAW264.7 cells; format: functional, cell-based
[3] = tested on: RAW264.7; assay: Cytotoxicity against mouse RAW264.7 cells assessed as reduction in cell viability measured after 24 hrs by MTT assay; format: cell-based; settings: RAW264.7, 24 h
[4] = tested on: RAW264.7; assay: Inhibition of LPS-induced nitric oxide production in mouse RAW264.7 cells measured after 24 hrs by Griess reagent based assay; format: functional, cell-based; settings: RAW264.7, 24 h

IC50 [2] [µM]	IC50 [4] [µM]	Structure (SMILES)	inhibition at 10 µM [1] [%]	IC50 [3] [µM]
		COc1cc(O)c(C(=O)/C(C)=C/c2ccccc2)c(OC)c1	57.5	
5.75		O=C(/C=C/c1ccccc1O)c1ccsc1		
		COc1cc(O)c(C(=O)/C=C/c2cc(OC)c(OC)c([N+](=O)[O-])c2)c(OC)c1	30.8	
		COc1cc(O)c(C(=O)/C=C/c2ccc(OC)c(OC)c2)c(OC)c1	78.7	
		COc1ccc(OC)c(/C=C/C(=O)c2c(O)cc(OC)cc2OC)c1	73.7	
	4.2	COc1cc(O)c(C(=O)/C=C/c2ccccc2)c(OC)c1 [FLAVOKAWAIN B]	80.6	26.5
	3.2	COc1cccc(/C=C/C(=O)c2ccc(OC)cc2O)c1	82.5	29.7
	6.5	COc1cc(O)c(C(=O)/C=C/c2ccc(OCCCN3CCCC3)c(OC)c2)c(OC)c1	83.1	> 40
0.033		COc1cc(/C=C/C(=O)c2ccc(F)cc2)cc(OC)c1OC		
0.6		COc1cccc(OC)c1C(=O)/C=C/c1ccc(N(C)C)cc1		
		COc1cc(O)c(C(=O)/C(F)=C/c2ccccc2)c(OC)c1	47.4	
		COc1cc(O)c(C(=O)/C=C/c2cc(OC)c(OC)cc2OC)c(OC)c1	78.4	
		COc1cccc(/C=C/C(=N\O)c2c(O)cc(OC)cc2OC)c1	46.4	
2.2		CC1(C)C=Cc2cc(/C=C/C(=O)c3ccc(O)cc3O)ccc2O1		
		COc1cc(O)c(C(=O)/C(F)=C/c2ccc(OC)c(OC)c2)c(OC)c1	62.6	
10.2		CC1(C)C=Cc2c(ccc(C(=O)/C=C/c3ccc(O)cc3)c2O)O1		
		COc1ccc(/C=C/C(=O)c2c(O)cc(OC)cc2OC)c(OC)c1	67.6	
		COc1ccc(/C=C/C(=O)c2c(O)cc(OC)cc2OC)cc1 [FLAVOKAWAIN A]	79.5	
		COc1cc(O)c(C(=O)/C=C/c2ccc([N+](=O)[O-])cc2)c(OC)c1	35.4	
	6.3	COc1cc(O)c(C(=O)/C=C/c2ccc(C)cc2)c(OC)c1	82.1	> 40
	3.6	COc1cccc(/C=C/C(=O)c2c(OC)cc(OC)cc2OC(C)=O)c1	84.6	30.7
		COc1cccc(CCC(=O)c2c(O)cc(OC)cc2OC)c1	52.2	
		COc1cc(O)c(C(=O)/C=C/c2ccc(O)cc2)c(OC)c1 [FLAVOKAWAIN C]	66.8	
		COc1cc(O)c(C(=O)/C=C/c2ccc(OC)c(Br)c2)c(OC)c1	73.8	
		COc1ccc(/C=C/C(=O)c2ccc(OC)cc2O)cc1	70	
		COc1ccc(/C=C(\C)C(=O)c2c(O)cc(OC)cc2OC)cc1	41.6	
9.6		COc1cccc(O)c1C(=O)/C=C/c1ccccc1		
		COc1cc(O)c(C(=O)/C=C/c2ccc(OC)c(O)c2)c(OC)c1	70.6	

Structure (SMILES)	IC50 [2] [µM]	IC50 [4] [µM]	inhibition at 10 µM [1] [%]	IC50 [3] [µM]
O=c1cc(-c2ccc(O)c(O)c2)oc2cc(O)cc(O)c12 [LUTEOLIN]		9.2	54.6	> 40
